According to patent publication US20260008760A1, “DIPEPTIDYL PEPTIDASE 1 INHIBITORS AND USES THEREOF” (Insmed Incorporated, priority 2024, published 2026):

Tests used:
DPP1 in HL-60 cells = DPP1 in HL-60 cells (Homo sapiens, UniProt P53634); assay: DPP1 Cell Single-Point Percent Inhibition Testing; format: cell-based; parameters: host or cells: HL-60 cells; settings: final compound concentration 5 nM, n = 1
Procedure, shortened: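 HL-60 cells in unsupplemented RPMI preincubated 60 min at 37 °C with test article (5 nM final, 0.1% DMSO), then given cell-permeable H-Gly-Phe-AFC (100 μM final) for 30 min. Fluorescence at 400/505 nm; percent inhibition versus vehicle after subtracting cell-free background and 10 μM brensocatib non-specific signal.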

human DPP1 enzyme = human DPP1 enzyme (Homo sapiens, UniProt P53634); assay: Human DPP1 Enzyme Single-Point Percent Inhibition Testing (HL-60 lysate); format: biochemical; parameters: A crude lysate of HL-60 cells (ATCC; Manassas, VA) was used as a source of human DPP1 enzyme; host or cells: HL-60 cells (crude lysate); settings: final compound concentration of 10 nM, 400 μM H-Gly-Arg-AMC, n = 1
Sequence of human DPP1 enzyme (P53634 25-463): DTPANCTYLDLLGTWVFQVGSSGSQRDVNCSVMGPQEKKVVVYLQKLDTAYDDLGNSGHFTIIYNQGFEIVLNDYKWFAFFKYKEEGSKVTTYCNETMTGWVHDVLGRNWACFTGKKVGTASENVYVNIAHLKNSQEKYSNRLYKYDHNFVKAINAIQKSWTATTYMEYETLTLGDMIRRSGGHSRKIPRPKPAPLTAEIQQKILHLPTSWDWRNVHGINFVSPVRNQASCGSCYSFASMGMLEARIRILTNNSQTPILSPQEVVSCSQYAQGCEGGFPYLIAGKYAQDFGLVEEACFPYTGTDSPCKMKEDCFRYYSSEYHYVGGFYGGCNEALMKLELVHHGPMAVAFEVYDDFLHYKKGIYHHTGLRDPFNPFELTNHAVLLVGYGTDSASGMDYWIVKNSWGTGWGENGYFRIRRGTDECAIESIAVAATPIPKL
Procedure, shortened: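 Enzyme source was HL-60 cell lysate in MES pH 6.0 buffer with NaCl and DTT, pre-incubated 10 min at 37° C with 10 nM compound (final, 1% DMSO). Cleavage of 400 μM H-Gly-Arg-AMC was followed at 350/450 nm over 90 min at 37° C, and percent inhibition was taken against vehicle wells.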

Sequence of DPP1 in HL-60 cells (P53634 25-463): as above

| Compound | inhibition at 0.005 µM (DPP1 in HL-60 cells) | inhibition at 0.01 µM (human DPP1 enzyme) |
| --- | --- | --- |
| CO[C@H]1CCO[C@H](C(=O)N[C@H](C#N)Cc2ccc(-c3ccc(CN4CCN(C)CC4)cc3)cc2)CNC1 [Compound F23] | ≤ 76.5% | ≤ 40% |
| CO[C@H]1CCO[C@H](C(=O)N[C@H](C#N)Cc2ccc(-c3ccc4c(c3)C3(CC4)CCN(C)CC3)cc2F)CNC1 [Compound F24] | ≤ 76.5% | ≥ 66.7% |
| CO[C@H]1CCO[C@H](C(=O)N[C@H](C#N)Cc2ccc(-c3ccc4c(c3)C3(CCCN(C)C3)C(=O)N4C)cc2F)CNC1 (stereo partly drawn) [Compound F25] | ≤ 76.5% | ≥ 66.7% |
| CO[C@H]1CCO[C@H](C(=O)N[C@H](C#N)Cc2ccc(-c3ccc4c(c3)C3(CN(C)C3)OC4=O)cc2F)CNC1 [Compound F26] | ≤ 76.5% | ≥ 66.7% |
| CO[C@H]1CCO[C@H](C(=O)N[C@H](C#N)Cc2ccc(-c3ccc4c(c3)C3(CCN(C)C3)OC4=O)cc2F)CNC1 (stereo partly drawn) [Compound F27] | ≤ 76.5% | ≥ 66.7% |
| CO[C@H]1CCO[C@H](C(=O)N[C@H](C#N)Cc2ccc(-c3ccc(CN4CCN(C)CC4)cc3)cc2F)CNC1 [Compound F28] | ≤ 76.5% | ≤ 40% |
| CO[C@H]1CCO[C@H](C(=O)N[C@H](C#N)Cc2ccc(-c3ccc(S(=O)(=O)N4CCC4)cc3)cc2)CNC1 [Compound F29] | ≤ 76.5% | ≤ 40% |
| CO[C@H]1CCO[C@H](C(=O)N[C@H](C#N)Cc2ccc(-c3ccc(S(=O)(=O)N4CCC4)cc3)cc2F)CNC1 [Compound F30] | ≤ 76.5% | 40 to 66.7% |
| CCN1C(=O)Cc2ccc(-c3ccc(C[C@@H](C#N)NC(=O)[C@@H]4CNCC[C@@H](OC)CO4)cc3)cc21 [Compound G1] | ≤ 76.5% | ≥ 66.7% |
| CCN1C(=O)Cc2ccc(-c3ccc(C[C@@H](C#N)NC(=O)[C@@H]4CNCC(OC)CO4)cc3)cc21 (stereo partly drawn) [Compound G3] | 76.5 to 93.9% | ≥ 66.7% |
| CCN1C(=O)Cc2ccc(-c3ccc(C[C@@H](C#N)NC(=O)[C@@H]4CNCC(OC)CO4)c(F)c3)cc21 (stereo partly drawn) [Compound G4] | ≥ 93.9% | ≥ 66.7% |
| CCN1C(=O)Cc2ccc(-c3ccc(C[C@@H](C#N)NC(=O)[C@@H]4CNC[C@@H](OC)CCO4)cc3)cc21 [Compound G5] | ≤ 76.5% | 40 to 66.7% |
| CCN1C(=O)Cc2ccc(-c3ccc(C[C@@H](C#N)NC(=O)[C@@H]4CNC[C@@H](OC)CCO4)c(F)c3)cc21 [Compound G6] | ≤ 76.5% | ≥ 66.7% |
| CCN1C(=O)Cc2ccc(-c3ccc(C[C@@H](C#N)NC(=O)[C@@H]4CN[C@@H](C)[C@H](O)CO4)c(F)c3)cc21 [Compound G8] | ≤ 76.5% | ≥ 66.7% |
| CO[C@@H]1CCNC[C@@H](C(=O)N[C@H](C#N)Cc2ccc(-c3ccc4cnn(C5CCN(C)CC5)c4c3)cc2)OC1 [Compound H3] | ≤ 76.5% | ≥ 66.7% |
| CO[C@@H]1CCNC[C@@H](C(=O)N[C@H](C#N)Cc2ccc(-c3ccc4cnn(C5CCN(C)CC5)c4c3)cc2F)OC1 [Compound H4] | ≤ 76.5% | ≥ 66.7% |
| CO[C@@H]1CCNC[C@@H](C(=O)N[C@H](C#N)Cc2ccc(-c3ccc4nnn(C)c4c3)cc2)OC1 [Compound H6] | ≤ 76.5% | ≥ 66.7% |
| CO[C@@H]1CCNC[C@@H](C(=O)N[C@H](C#N)Cc2ccc(-c3ccc4nnn(C)c4c3)cc2F)OC1 [Compound H8] | ≤ 76.5% | ≥ 66.7% |
| COC1CNC[C@@H](C(=O)N[C@H](C#N)Cc2ccc(-c3ccc4cnn(C5CCN(C)CC5)c4c3)cc2)OC1 (stereo partly drawn) [Compound H9] | ≤ 76.5% | ≥ 66.7% |
| COC1CNC[C@@H](C(=O)N[C@H](C#N)Cc2ccc(-c3ccc4cnn(C5CCN(C)CC5)c4c3)cc2F)OC1 (stereo partly drawn) [Compound H10] | ≤ 76.5% | ≥ 66.7% |
| COC1CNC[C@@H](C(=O)N[C@H](C#N)Cc2ccc(-c3ccc4cnn(C)c4c3)cc2)OC1 (stereo partly drawn) [Compound H11] | 76.5 to 93.9% | ≥ 66.7% |

| Compound | inhibition at 0.005 µM (DPP1 in HL-60 cells) | inhibition at 0.01 µM (human DPP1 enzyme) |
| --- | --- | --- |
| COC1CNC[C@@H](C(=O)N[C@H](C#N)Cc2ccc(-c3ccc4cnn(C)c4c3)cc2F)OC1 (stereo partly drawn) [Compound H13] | 76.5 to 93.9% | ≥ 66.7% |
| COC1CNC[C@@H](C(=O)N[C@H](C#N)Cc2ccc(-c3ccc4nnn(C)c4c3)cc2F)OC1 (stereo partly drawn) [Compound H14] | 76.5 to 93.9% | ≥ 66.7% |
| CO[C@H]1CCO[C@H](C(=O)N[C@H](C#N)Cc2ccc(-c3ccc4cnn(C5CCN(C)CC5)c4c3)cc2)CNC1 [Compound H15] | ≤ 76.5% | 40 to 66.7% |
| CO[C@H]1CCO[C@H](C(=O)N[C@H](C#N)Cc2ccc(-c3ccc4cnn(C5CCN(C)CC5)c4c3)cc2F)CNC1 [Compound H16] | ≤ 76.5% | ≥ 66.7% |
| CO[C@H]1CCO[C@H](C(=O)N[C@H](C#N)Cc2ccc(-c3ccc4cnn(C)c4c3)cc2)CNC1 [Compound H17] | ≤ 76.5% | ≤ 40% |
| CO[C@H]1CCO[C@H](C(=O)N[C@H](C#N)Cc2ccc(-c3ccc4nnn(C)c4c3)cc2)CNC1 [Compound H18] | ≤ 76.5% | ≤ 40% |
| CO[C@H]1CCO[C@H](C(=O)N[C@H](C#N)Cc2ccc(-c3ccc4cnn(C)c4c3)cc2F)CNC1 [Compound H19] | ≤ 76.5% | ≥ 66.7% |
| CO[C@H]1CCO[C@H](C(=O)N[C@H](C#N)Cc2ccc(-c3ccc4nnn(C)c4c3)cc2F)CNC1 [Compound H20] | ≤ 76.5% | 40 to 66.7% |
| C[C@@H]1NC[C@@H](C(=O)N[C@H](C#N)Cc2ccc(-c3ccc4cnn(C5CCN(C)CC5)c4c3)cc2)OC[C@H]1O [Compound H21] | ≤ 76.5% | ≥ 66.7% |
| C[C@@H]1NC[C@@H](C(=O)N[C@H](C#N)Cc2ccc(-c3ccc4nnn(C)c4c3)cc2)OC[C@H]1O [Compound H24] | ≤ 76.5% | ≥ 66.7% |
| C[C@@H]1NC[C@@H](C(=O)N[C@H](C#N)Cc2ccc(-c3ccc4cnn(C5CCN(C)CC5)c4c3)cc2)OC[C@@H]1O [Compound H27] | ≤ 76.5% | ≤ 40% |
| C[C@@H]1NC[C@@H](C(=O)N[C@H](C#N)Cc2ccc(-c3ccc4cnn(C5CCN(C)CC5)c4c3)cc2F)OC[C@@H]1O [Compound H28] | ≤ 76.5% | ≥ 66.7% |
| C[C@@H]1NC[C@@H](C(=O)N[C@H](C#N)Cc2ccc(-c3ccc4nnn(C)c4c3)cc2)OC[C@@H]1O [Compound H30] | ≤ 76.5% | ≤ 40% |
| C[C@@H]1NC[C@@H](C(=O)N[C@H](C#N)Cc2ccc(-c3ccc4nnn(C)c4c3)cc2F)OC[C@@H]1O [Compound H32] | ≤ 76.5% | 40 to 66.7% |
| CN1CCC(n2ncc3ccc(-c4ccc(C[C@@H](C#N)NC(=O)[C@@H]5CNCCCCO5)cc4)cc32)CC1 [Compound H33] | ≤ 76.5% | ≤ 40% |
| CN1CCC(n2ncc3ccc(-c4ccc(C[C@@H](C#N)NC(=O)[C@@H]5CNCCCCO5)c(F)c4)cc32)CC1 [Compound H34] | ≤ 76.5% | ≥ 66.7% |
| Cn1ncc2ccc(-c3ccc(C[C@@H](C#N)NC(=O)[C@@H]4CNCCCCO4)cc3)cc21 [Compound H35] | ≤ 76.5% | ≤ 40% |
| Cn1nnc2ccc(-c3ccc(C[C@@H](C#N)NC(=O)[C@@H]4CNCCCCO4)cc3)cc21 [Compound H36] | ≤ 76.5% | ≤ 40% |
| Cn1ncc2ccc(-c3ccc(C[C@@H](C#N)NC(=O)[C@@H]4CNCCCCO4)c(F)c3)cc21 [Compound H37] | ≤ 76.5% | 40 to 66.7% |
| Cn1nnc2ccc(-c3ccc(C[C@@H](C#N)NC(=O)[C@@H]4CNCCCCO4)c(F)c3)cc21 [Compound H38] | ≤ 76.5% | ≤ 40% |
| CO[C@@H]1CCNC[C@@H](C(=O)N[C@H](C#N)Cc2ccc(-c3ccn4ccnc4c3)cc2)OC1 [Compound H39] | ≤ 76.5% | 40 to 66.7% |
